“And” between values parts separate entries of the source, which are not always exact repeats. Equal values may be shown once. Toxic doses and inconclusive results are not listed.
Tested on: CD2F1 mice, L1210 leukemia ip, survival T/C
Assay: NCI In Vivo Anticancer Drug Screen. Data for tumor model L1210 Leukemia (intraperitoneal) in CD2F1 (CDF1) mice
Conditions: higher = longer survival
Method in brief: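 Vehicle-treated tumor-bearing mice served as controls (C) for compound-treated mice (T). Reported figure is T divided by C.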

[1] = endpoint: mean survival time, dose: 100.0 mg/kg/injection, schedule: Q01DX009 (ip), vehicle: saline with Tween-80
[2] = endpoint: mean survival time, dose: 100.0 mg/kg/injection, schedule: Q04DX003 (ip), vehicle: saline with Tween-80
[3] = endpoint: mean survival time, dose: 200.0 mg/kg/injection, schedule: Q01DX009 (ip), vehicle: saline with Tween-80
[4] = endpoint: mean survival time, dose: 200.0 mg/kg/injection, schedule: Q04DX003 (ip), vehicle: saline with Tween-80
[5] = endpoint: mean survival time, dose: 400.0 mg/kg/injection, schedule: Q01DX009 (ip), vehicle: saline with Tween-80
[6] = endpoint: mean survival time, dose: 400.0 mg/kg/injection, schedule: Q04DX003 (ip), vehicle: saline with Tween-80
[7] = endpoint: mean survival time, dose: 100.0 mg/kg/injection, schedule: Q01DX001 (ip), vehicle: saline
[8] = endpoint: mean survival time, dose: 200.0 mg/kg/injection, schedule: Q01DX001 (ip), vehicle: saline
[9] = endpoint: mean survival time, dose: 400.0 mg/kg/injection, schedule: Q01DX001 (ip), vehicle: saline
[10] = endpoint: mean survival time, dose: 50.0 mg/kg/injection, schedule: Q04DX003 (ip), vehicle: saline with Tween-80

SMILES: OCC1OC(n2cnc3c2NC=NCC3O)C(Cl)C1O (centres undefined)
- T/C (endpoint: median survival time, dose: 5.0 mg/kg/injection, schedule: Q01DX005 (ip), vehicle: other): 101 % of control
- T/C (endpoint: median survival time, dose: 10.0 mg/kg/injection, schedule: Q01DX005 (ip), vehicle: other): 103 % of control
- T/C (endpoint: median survival time, dose: 20.0 mg/kg/injection, schedule: Q01DX005 (ip), vehicle: other): 96 % of control
- T/C (endpoint: median survival time, dose: 30.0 mg/kg/injection, schedule: Q01DX005 (ip), vehicle: other): 118 % of control
- T/C (endpoint: median survival time, dose: 40.0 mg/kg/injection, schedule: Q01DX005 (ip), vehicle: other): 106 % of control
- T/C (endpoint: median survival time, dose: 60.0 mg/kg/injection, schedule: Q01DX005 (ip), vehicle: other): 107 % of control
- T/C (endpoint: median survival time, dose: 120.0 mg/kg/injection, schedule: Q01DX005 (ip), vehicle: other): 100 % of control

SMILES: Nc1ncnc2c1ncn2C1C=C(CO)C(O)C1O (centres undefined)
- T/C (endpoint: mean survival time, dose: 0.25 mg/kg/injection, schedule: Q01DX009 (ip), vehicle: Klucel (hydroxypropylcellulose) (HPC)): 122 % of control
- T/C (endpoint: mean survival time, dose: 0.5 mg/kg/injection, schedule: Q01DX009 (ip), vehicle: Klucel (hydroxypropylcellulose) (HPC)): 113 % of control and 123 % of control
- T/C (endpoint: mean survival time, dose: 1.0 mg/kg/injection, schedule: Q01DX009 (ip), vehicle: Klucel (hydroxypropylcellulose) (HPC)): 124 % of control
- T/C (endpoint: mean survival time, dose: 4.0 mg/kg/injection, schedule: Q01DX009 (ip), vehicle: Klucel (hydroxypropylcellulose) (HPC)): 122 % of control

SMILES: O=C(NCCCN1CC1)C(=O)NCCCN1CC1
- T/C (endpoint: mean survival time, dose: 3.13 mg/kg/injection, schedule: Q01DX009 (ip), vehicle: saline): 191 % of control
- T/C (endpoint: mean survival time, dose: 12.5 mg/kg/injection, schedule: Q01DX009 (ip), vehicle: saline): 101 % of control

SMILES: O=C(/C=C/c1ccccc1)Cc1ccccc1
- T/C [1]: 93 % of control
- T/C [2]: 92 % of control
- T/C [3]: 98 % of control
- T/C [4]: 93 % of control
- T/C [5]: 88 % of control
- T/C [6]: 93 % of control

SMILES: CCN(CC)Cc1ccccc1COC(=O)c1ccccc1
- T/C (endpoint: mean survival time, dose: 100.0 mg/kg/injection, schedule: Q04DX002 (ip), vehicle: saline): 98 % of control
- T/C (endpoint: mean survival time, dose: 200.0 mg/kg/injection, schedule: Q04DX002 (ip), vehicle: saline): 111 % of control

SMILES: Cc1cc(C)nc(NC(=S)N/N=C/c2ccccn2)n1
- T/C (endpoint: mean survival time, dose: 100.0 mg/kg/injection, schedule: Q04DX002 (ip), vehicle: saline with Tween-80): 98 % of control
- T/C (endpoint: mean survival time, dose: 200.0 mg/kg/injection, schedule: Q04DX002 (ip), vehicle: saline with Tween-80): 98 % of control
- T/C (endpoint: mean survival time, dose: 400.0 mg/kg/injection, schedule: Q04DX002 (ip), vehicle: saline with Tween-80): 106 % of control

SMILES: [O-][n+]1c2c(cc3ccccc31)Cc1ccccc1-2
- T/C (endpoint: mean survival time, dose: 100.0 mg/kg/injection, schedule: Q04DX003 (ip), vehicle: Klucel (hydroxypropylcellulose) (HPC)): 98 % of control
- T/C (endpoint: mean survival time, dose: 200.0 mg/kg/injection, schedule: Q04DX003 (ip), vehicle: Klucel (hydroxypropylcellulose) (HPC)): 96 % of control
- T/C (endpoint: mean survival time, dose: 400.0 mg/kg/injection, schedule: Q04DX003 (ip), vehicle: Klucel (hydroxypropylcellulose) (HPC)): 93 % of control

SMILES: CCCCCC(=O)N1CCCC1
- T/C [2]: 98 % of control
- T/C [4]: 98 % of control

SMILES: Cc1cc2cc3c(=O)[nH]c(=O)nc-3n(CC(O)C(O)C(O)CO)c2cc1C (centres undefined)
- T/C [7]: 103 % of control
- T/C [8]: 107 % of control
- T/C [9]: 98 % of control

SMILES: Cc1ccc2nc(-c3ccc([N+](=O)[O-])cc3)oc(=O)c2c1
- T/C (endpoint: mean survival time, dose: 50.0 mg/kg/injection, schedule: Q01DX009 (ip), vehicle: saline with Tween-80): 93 % of control
- T/C [1]: 97 % of control
- T/C [3]: 93 % of control

SMILES: CN(C)CCCNc1cc(O)c2c(c1O)C(=O)c1ccccc1C2=O
- T/C (endpoint: mean survival time, dose: 25.0 mg/kg/injection, schedule: Q01DX009 (ip), vehicle: water): 98 % of control
- T/C (endpoint: mean survival time, dose: 50.0 mg/kg/injection, schedule: Q01DX009 (ip), vehicle: water): 98 % of control
- T/C (endpoint: mean survival time, dose: 100.0 mg/kg/injection, schedule: Q01DX009 (ip), vehicle: water): 95 % of control
- T/C (endpoint: mean survival time, dose: 200.0 mg/kg/injection, schedule: Q01DX009 (ip), vehicle: water): 98 % of control

SMILES: CC(C)(C)OC(=O)CCC(NC(=O)OCc1ccccc1)C(=O)O (centres undefined)
- T/C [10]: 93 % of control
- T/C (endpoint: mean survival time, dose: 100.0 mg/kg/injection, schedule: Q01DX001 (ip), vehicle: saline sonified): 103 % of control
- T/C [2]: 94 % of control
- T/C (endpoint: mean survival time, dose: 200.0 mg/kg/injection, schedule: Q01DX001 (ip), vehicle: saline sonified): 109 % of control

SMILES: COc1cc(Cl)ccc1NC(=O)OCCOc1cc(OC)c(Cl)c(OC)c1
- T/C [1]: 101 % of control
- T/C [3]: 103 % of control
- T/C [5]: 101 % of control

SMILES: CC#CCO
- T/C [1]: 104 % of control
- T/C [3]: 98 % of control

SMILES: CC(NC(=O)CN)C(=O)O (centres undefined)
- T/C [7]: 100 % of control
- T/C [8]: 100 % of control
- T/C [9]: 104 % of control

SMILES: CC(=O)Nc1ccc(-c2c(NCCO)ncc3ccccc23)cc1
- T/C (endpoint: mean survival time, dose: 25.0 mg/kg/injection, schedule: Q04DX003 (ip), vehicle: other): 104 % of control
- T/C (endpoint: mean survival time, dose: 50.0 mg/kg/injection, schedule: Q04DX003 (ip), vehicle: other): 98 % of control
- T/C (endpoint: mean survival time, dose: 100.0 mg/kg/injection, schedule: Q04DX003 (ip), vehicle: other): 98 % of control
- T/C (endpoint: mean survival time, dose: 200.0 mg/kg/injection, schedule: Q04DX003 (ip), vehicle: other): 104 % of control

SMILES: CN1N=C(N)c2cn(C3OC(CO)C4OC(C)(C)OC43)c3ncnc1c23 (centres undefined)
- T/C (endpoint: mean survival time, dose: 12.5 mg/kg/injection, schedule: Q01DX005 (ip), vehicle: water): 87 % of control
- T/C (endpoint: mean survival time, dose: 25.0 mg/kg/injection, schedule: Q01DX005 (ip), vehicle: water): 96 % of control
- T/C (endpoint: mean survival time, dose: 50.0 mg/kg/injection, schedule: Q01DX005 (ip), vehicle: water): 104 % of control
- T/C (endpoint: mean survival time, dose: 100.0 mg/kg/injection, schedule: Q01DX005 (ip), vehicle: water): 104 % of control

SMILES: Oc1ccc(-c2ccc(O)cc2)cc1
- T/C [10]: 100 % of control
- T/C [2]: 101 % of control and 107 % of control
- T/C [4]: 109 % of control
- T/C [6]: 121 % of control

SMILES: CCOC(=O)Nc1cc2c3ccccc3ncc2c2ccccc12
- T/C (endpoint: mean survival time, dose: 25.0 mg/kg/injection, schedule: Q04DX003 (ip), vehicle: saline with Tween-80): 94 % of control
- T/C [10]: 86 % of control
- T/C [2]: 87 % of control
- T/C [4]: 89 % of control
- T/C [6]: 101 % of control

SMILES: NC1CCCCC1N.O=S(=O)([O-])CCCN1CCOCC1.O=S(=O)([O-])CCCN1CCOCC1.[Pt+4]
- T/C (endpoint: median survival time, dose: 3.12 mg/kg/injection, schedule: Q04DX003 (ip), vehicle: saline with Tween-80): 361 % of control
- T/C (endpoint: median survival time, dose: 6.25 mg/kg/injection, schedule: Q04DX003 (ip), vehicle: saline with Tween-80): 174 % of control and 361 % of control
- T/C (endpoint: median survival time, dose: 12.5 mg/kg/injection, schedule: Q04DX003 (ip), vehicle: saline with Tween-80): 195 % of control and 196 % of control
- T/C (endpoint: median survival time, dose: 25.0 mg/kg/injection, schedule: Q04DX003 (ip), vehicle: saline with Tween-80): 341 % of control and 361 % of control
- T/C (endpoint: median survival time, dose: 50.0 mg/kg/injection, schedule: Q04DX003 (ip), vehicle: saline with Tween-80): 228 % of control and 365 % of control

SMILES: COS(=O)(=O)CC(O)(c1ccccc1)c1ccccc1
- T/C (endpoint: mean survival time, dose: 75.0 mg/kg/injection, schedule: Q01DX009 (ip), vehicle: saline): 102 % of control
- T/C (endpoint: mean survival time, dose: 75.0 mg/kg/injection, schedule: Q04DX003 (ip), vehicle: saline): 97 % of control
- T/C (endpoint: mean survival time, dose: 150.0 mg/kg/injection, schedule: Q01DX009 (ip), vehicle: saline): 100 % of control
- T/C (endpoint: mean survival time, dose: 150.0 mg/kg/injection, schedule: Q04DX003 (ip), vehicle: saline): 95 % of control
- T/C (endpoint: mean survival time, dose: 300.0 mg/kg/injection, schedule: Q01DX009 (ip), vehicle: saline): 100 % of control
- T/C (endpoint: mean survival time, dose: 300.0 mg/kg/injection, schedule: Q04DX003 (ip), vehicle: saline): 95 % of control

SMILES: CC(O)C(O)C=O (centres undefined)
- T/C (endpoint: mean survival time, dose: 72.0 mg/kg/injection, schedule: Q03HX008 (ip), vehicle: saline): 100 % of control
- T/C (endpoint: mean survival time, dose: 120.0 mg/kg/injection, schedule: Q03HX008 (ip), vehicle: saline): 97 % of control
- T/C (endpoint: mean survival time, dose: 200.0 mg/kg/injection, schedule: Q03HX008 (ip), vehicle: saline): 102 % of control
- T/C (endpoint: mean survival time, dose: 248.0 mg/kg/injection, schedule: Q01DX009 (ip), vehicle: saline): 101 % of control
- T/C (endpoint: mean survival time, dose: 346.0 mg/kg/injection, schedule: Q01DX009 (ip), vehicle: saline): 104 % of control
- T/C (endpoint: mean survival time, dose: 576.0 mg/kg/injection, schedule: Q01DX001 (ip), vehicle: saline): 97 % of control
- T/C (endpoint: mean survival time, dose: 576.0 mg/kg/injection, schedule: Q01DX009 (ip), vehicle: saline): 107 % of control
- T/C (endpoint: mean survival time, dose: 960.0 mg/kg/injection, schedule: Q01DX001 (ip), vehicle: saline): 94 % of control
- T/C (endpoint: mean survival time, dose: 1600.0 mg/kg/injection, schedule: Q01DX001 (ip), vehicle: saline): 102 % of control

SMILES: O=C(Nc1ccccc1I)c1ccccc1
- T/C [2]: 110 % of control
- T/C [4]: 98 % of control
- T/C [6]: 98 % of control

SMILES: c1ccc(CNc2ccccn2)cc1
- T/C [2]: 97 % of control
- T/C [4]: 97 % of control
- T/C [6]: 95 % of control

— PubChem BioAssay AID256 (DTP/NCI, 2004)
